These are literature values, as cited in patent US20070231316A1, “Treatment of Cognitive Dysfunction in Lupus” (priority 2003, published 2007).

For series [1] the following is noted: NP-SLE patients, after treatment.
The conditions of series [2]: in vivo.

For `O=P1(N(CCCl)CCCl)NCCCO1` (stereo not drawn) [cyclophosphamide], in series [1], the “GFAP level in CSF” value is listed as “marked decline” and the “NFL level in CSF” value is on record as “marked decline”.

Take lipopolysaccharide [LPS]: the “effect on blood-brain barrier” value in series [2] is recorded as “temporary opening of the blood-brain barrier”.
